Measurements reported in patent US20260176275A1, “VINYLPHOSPHONIC ACID-MODIFIED MRNA CAP ANALOG, METHOD FOR PREPARING SAME, AND USE THEREOF” (Jiangsu Synthgene Biotechnology Co., Ltd., priority 2022, published 2026).

What was measured:
[1] = molecular target: eukaryotic initiation factor (elF4E) (Homo sapiens, UniProt P06730); assay: Assay of binding ability to eukaryotic initiation factor (elF4E), Biacore T100
Protocol: Test method: Firstly, experimental samples, including the cap analog samples of Examples 1-7, compounds 10-13, 16, 17, 25, 31 and 34, and Comparative Example 1, were diluted with a running buffer (50 mM phosphate, 100 mM sodium chloride, and 0.01% vol/vol Tween 20, pH 6.0 or 7.4). The sample injection time was […], the sample injection flow rate was 20 L/min, and the dissociation time was […]. The residual samples were eluted with a regeneration buffer (10 mM HEPES, 150 mM NaCl, and 0.010% vol/vol Tween 20, pH 7.4) for 30 s at a flow rate of 30 μL/min. Finally, through analysis by Biacore T100 evaluation software (version 2.0.2), sensorgrams were generated and the binding constants were calculated.

293T cells = assay: mRNA translation efficiency: eGFP mRNA capped with the analogs transfected into 293T cells, GFP fluorescence; assay type: cell-based; conditions: summary of Table 6
Protocol: Test method: In-vitro transcription was initiated with the cap analogs of Examples 1-7, compounds 10-13, 16, 17, 25, 31 and 34, and Comparative Example 1 by using an eGFP coding sequence as a DNA template. The different mRNA products obtained were then transfected into 293T cells. The 293T cells were plated (onto a 24-well plate) at (0.5-1)×10^5 cells/well. During the transfection, in general, the cell density was preferably 60%-80%; […] was transfected into each well, and the Lipofectamine MessengerMAX Transfection Reagent (Invitrogen) was selected as the transfection reagent and used according to its usage instructions. The transfected cells were placed in an incubator at 37° C. with CO2. After transfection for 4-6 h, the medium was replaced with a fresh complete medium. After incubation in the incubator at 37° C. with CO2 for 24 h, the fluorescence intensity of GFPs in the cells was observed through a fluorescence microscope, and the fluorescence intensity ratios of Examples 1-7 and compounds 10-13, 16, 17, 25, 31 and 34 relative to Comparative Example 1 were calculated based on the fluorescence intensities.

T7 RNA polymerase [2] = molecular target: T1, T7 RNA polymerase (Escherichia phage T7, UniProt P00573); assay: IVT capping rate of mRNA by LC-MS after RNase H cleavage; assay type: biochemical
Protocol: (§1) In-vitro synthesis of mRNA cap analogs modified with vinylphosphonic acid: Firstly, a plasmid was linearized with NotI and digested at […] overnight. A DNA template was extracted. mRNAs were synthesized by in-vitro transcription using the vinylphosphonic acid-modified mRNA cap analogs of Examples 1-7 and compounds 10-13, 16, 17, 25, 31 and 34, and the cap analog of Comparative Example 1 as cap structures, respectively.
(§2) Note: During the experiment, the volume of the materials required for the system was calculated firstly, and then sample loading was performed. Firstly, sterile enzyme-free water was added into the system, and then 10× buffer, NTPs, and the cap analog were sequentially added. The mixture was uniformly mixed and then gently centrifuged, followed by addition of the nuclease inhibitor, the inorganic pyrophosphatase, the T7 RNA polymerase, and the linearized DNA template. The mixture was well mixed, then gently centrifuged, and incubated at 37° C. After 2 h, DNase I (1 U) was added, and the mixture was incubated at 37° C. for another 30 min to remove the DNA template. RNA purification was then performed (usually using the magnetic bead purification method). The purified mRNA was dissolved in sterile enzyme-free water, and then quantitative detection was performed by using Nanodrop One.
Liquid chromatography-mass spectrometry (LC-MS) was used to detect the IVT capping rates of mRNAs with different starting cap analogs. Firstly, a labeled (usually biotin-labeled) DNA probe matched with the starting base of mRNA as the transcript product was required to be designed, and streptavidin-labeled magnetic beads were washed, and then incubated with the synthesized DNA probe, mRNA and 10× RNase H reaction buffer with slowly mixing at room temperature for 30 min. 20 L of RNase H (5 U/μL) was then added, and the mixture was incubated at 37° C. for 3 h, with uniform mixing every half hour. After the incubation was completed, the magnetic beads were cleaned, and then 100 μL of 75% methanol heated to 80° C. was added to the cleaned magnetic beads. The mixture was heated to 80° C. on a heating plate, held for 3 min, and then placed on a magnetic rack. The supernatant was pipetted and dried at room temperature for 45 min to 10 Lby using an evaporation centrifuge. The sample was then resuspended in 50 μL of 100 μM EDTA/1% MeOH for LC-MS analysis to determine the capping of RNA in the transcription reaction. Due to the significant difference in molecular weight between capped and uncapped bases, the capping rates of mRNA transcription initiated with different cap analogs can be determined by using the difference in molecular weight.

T7 RNA polymerase [3] = molecular target: T1, T7 RNA polymerase; assay: mRNA in-vitro transcription yield with cap analog (T7 IVT, Nanodrop One quantification); assay type: biochemical
Protocol: as §1, §2

T1 sequence (P00573 whole entry): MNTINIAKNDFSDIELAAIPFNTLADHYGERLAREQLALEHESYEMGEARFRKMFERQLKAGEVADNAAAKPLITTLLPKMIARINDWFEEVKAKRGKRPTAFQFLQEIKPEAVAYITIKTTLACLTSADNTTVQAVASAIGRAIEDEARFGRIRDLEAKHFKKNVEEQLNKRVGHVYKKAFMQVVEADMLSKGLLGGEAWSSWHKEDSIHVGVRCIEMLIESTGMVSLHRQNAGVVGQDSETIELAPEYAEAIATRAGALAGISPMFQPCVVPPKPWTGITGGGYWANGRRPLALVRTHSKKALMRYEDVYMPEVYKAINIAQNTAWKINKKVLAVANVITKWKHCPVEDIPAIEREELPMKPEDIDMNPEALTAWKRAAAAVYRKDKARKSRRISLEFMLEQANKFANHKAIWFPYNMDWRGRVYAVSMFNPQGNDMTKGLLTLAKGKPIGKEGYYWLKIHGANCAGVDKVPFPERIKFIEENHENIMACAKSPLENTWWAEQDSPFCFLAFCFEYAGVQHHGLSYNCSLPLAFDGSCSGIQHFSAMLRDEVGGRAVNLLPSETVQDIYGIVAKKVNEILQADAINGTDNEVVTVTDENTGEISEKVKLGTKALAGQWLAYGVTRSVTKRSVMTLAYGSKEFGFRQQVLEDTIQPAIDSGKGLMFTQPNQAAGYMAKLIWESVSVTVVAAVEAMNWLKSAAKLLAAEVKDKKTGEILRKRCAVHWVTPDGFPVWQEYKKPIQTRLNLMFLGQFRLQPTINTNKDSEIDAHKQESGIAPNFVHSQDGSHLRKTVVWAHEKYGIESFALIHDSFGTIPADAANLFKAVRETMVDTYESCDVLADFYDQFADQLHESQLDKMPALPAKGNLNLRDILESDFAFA
Chain of eukaryotic initiation factor (elF4E) (P06730 whole entry): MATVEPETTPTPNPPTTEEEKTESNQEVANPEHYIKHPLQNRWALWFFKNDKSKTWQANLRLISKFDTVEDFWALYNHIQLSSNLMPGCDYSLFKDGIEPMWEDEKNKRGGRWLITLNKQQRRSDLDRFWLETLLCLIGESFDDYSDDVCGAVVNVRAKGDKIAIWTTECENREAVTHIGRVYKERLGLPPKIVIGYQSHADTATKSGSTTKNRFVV

SMILES: COC1[C@@H](OP(=O)(O)/C=C/[C@H]2O[C@@H](n3cnc4c(=O)[nH]c(N)nc43)C(O)[C@H]2O)[C@@H](/C=C\P(=O)(O)OP(=O)(O)OP(=O)(O)/C=C\[C@H]2O[C@@H](n3c[n+](C)c4c(=O)[nH]c(N)nc43)[C@@H](O)C2O)O[C@H]1n1cnc2c(N)ncnc21 (stereo partly shown) [Example 7]
- binding constant to elF4E protein compared with Comparative Example 1 (in words) ([1]; Table 5): the lowest as compared to Comparative Example 1
- Kd ([1]; cap analog to elF4E protein, running buffer pH 6.0 or 7.4, read-out: Binding constant (converted)): 1160 nM
- intracellular translation effect of mRNA compared with Comparative Example 1 (in words) (293T cells): the lowest as compared to Comparative Example 1
- Capping rate (T7 RNA polymerase [2]; LC-MS of mRNA transcribed with the cap analog): 82.6%
- capping efficiency compared with Comparative Example 1 (in words) (T7 RNA polymerase [2]; text summary of Table 4): significantly lower than those of Comparative Example 1
- Yield (T7 RNA polymerase [3]; mRNA from 20 μL IVT system, 1 μl 100 mM cap analog, 1 μg template, 37° C. 2 h): 85 µg
- in-vitro transcription yield compared with Comparative Example 1 (in words) (T7 RNA polymerase [3]; text summary of Table 4): significantly lower than those of Comparative Example 1
